Values of other authors as cited in publication PMC6265740, “Biochemical and Anti-Triple Negative Metastatic Breast Tumor Cell Properties of Psammaplins” (Marine Drugs, 2018).

What was measured:
MDA-MB-231 [1] = tested on: MDA-MB-231; set-up: method as in PMID 28574600; details: in vitro ref 38; cited from earlier work
MDA-MB-231 [2] = tested on: MDA-MB-231; set-up: method as in PMID 28574600; details: embryonic zebrafish, xenografts, and orthotopic tumor models ref 38; cited from earlier work
SIRT1 = tested on: SIRT1; set-up: method as in PMID 25445714, PMID 27537898; details: breast tumor cells ref 36,37; cited from earlier work

SMILES	MDA-MB-231 migration and angiogenesis (MDA-MB-231 [1])	MDA-MB-231 metastatic potential (MDA-MB-231 [2])	SIRT1 enzyme expression and activity (SIRT1)
C=CCSSSCC=C [Garlic diallyl trisulfide, diallyl trisulfide]	inhibited MDA-MB-231 migration and angiogenesis	suppress MDA-MB-231 metastatic potential	
O=C(NCCSSCCNC(=O)/C(Cc1ccc(O)c(Br)c1)=N/O)/C(Cc1ccc(O)c(Br)c1)=N/O [Psammaplin A]			decreased SIRT1 enzyme expression and activity
